In patent US20050288279A1, “Phenothiazine derivatives and their method of use” (priority 2004, published 2005):
Entries after “also recorded” stand apart in the source; their conditions may differ. Like-named read-outs stand apart in the source and are kept apart here.

How the values were obtained:
guinea pigs = conditions: p.o. (Schwetz et al. 1973); cited from earlier work
hamsters = hamsters (Eisler 1986); cited from earlier work
rats [1] = conditions: cited from earlier work
rats [2] = conditions: adult cycling rats, 10 μg/kg (Li et al. 1995a); cited from earlier work
rats [3] = conditions: calculated from the literature, cited from earlier work
[4] = WHO; cited from earlier work
humans = conditions: cited from earlier work
[5] = human data; cited from earlier work
guinea pig = test: Single intravenous administration of TCPT in guinea pigs; type: in vivo; conditions: single i.v. 10 mg/kg in acetone (0.5 ml/kg)
Experimental: During ovulation studies (see Example 4 below), an adult female was lost after having been dosed with 10 mg/kg/day for 9 consecutive days; the animal died on day 13.
In this example, the toxicity of TCPT was compared between each species. […] On the other hand, a female rat receiving i.v. 10 mg/kg was sedated within 30 minutes.

[6] = Acute i.v. toxicity of TCPT in rats; type: in vivo, rat; conditions: female, Sprague-Dawley, rat, in vivo, iv; rats, i.v.; read-out: dose for the acute lethal toxicity (referred to as i.v. LD50)
Experimental: (§1) Animals dosed with 10 mg/kg became unconscious for 30 min, whereas in the 5 mg/kg dose group, the rats lost consciousness for 3 min only, likely representing the effects of acetone in this case.
(§2) Due to the unexpectedly rapid onset of death, no more detailed observations, e.g. on the heart rate, could be made.

Sprague-Dawley rats = test: Acute i.v. toxicity of TCPT in rats; type: in vivo, rat
Experimental: as §1, §2

[7] = tested on: Dunkin-Hartley guinea pigs; test: Altering the regulation level for bodyweight in guinea pigs; type: in vivo, guinea pig
Experimental: In the present invention, guinea pigs were dosed for 9 consecutive days with 2.5, 5, 10 and 20 mg/kg/day TCPT, respectively. The observations presented here were made during another study which was not designed for comparative body weight analysis. […] In contrast to studies on TCDD, weight gain resumed 1-2 days after cessation, probably due to TCPT's shorter half-life and therefore more rapid elimination.

[8] = tested on: Dunkin-Hartley guinea pigs; test: Effects on ovulation in guinea pigs; type: in vivo, guinea pig
From the text: In the present invention, guinea pigs were chosen for this study for two reasons. First, they represent the species that is the most sensitive to TCDD. […] Dosing with gelatin capsules can be performed in this species without anesthesia, which is not possible in rats. This is an important factor, since anesthetics generally influence ovulation.
The guinea pigs were followed for at least two regular consecutive cycles (about 16 days each) before commencing with dosing and also after the administration of TCPT was terminated. Their cycles were tracked by observation of vaginal opening and vaginal smears. The day of ovulation, day 1, was defined as a leucocytic smear following a cornified smear. The animals were dosed for 9 consecutive days starting on day 9 of a highly regular normal cycle. This way, the dosing period overlapped with the relevant time-span for ovulation and regulation of the cycle length (Terranova & Greenwald 1981). The animals received dose rates of 2.5, 5, 10 and 20 mg/kg TCPT per day. One animal was pair-fed to an animal dosed with 20 mg/kg/day TCPT.

CYP 1A1 = test: In vitro ethoxyresorufin-O-deethylase (EROD) study in rat hepatoma cells; type: cell-based
Experimental: The induction of CYP 1A1 has been quantitatively measured in an cell-line study. The choice of EROD as an in vitro study was made based on its established procedure and speed. […] Its metabolic context is both, a strength and a weakness of the EROD assay. The greatest advantage of cell-based assays is the detection of the actual gene expression as compared to the study of interaction with DREs (Seidel et al. 2000).
The EROD-specific activity of TCPT declined over time, with its maximum at 24 h out of measurements after 24, 48 and 72 h. This indicates a comparatively rapid metabilization of TCPT by rat hepatoma cells.

[9] = Half-lives after intravenous dosage in rats; conditions: rat, in vivo
From the text: (§3) Studies on a limited number of animal have been conducted to determine the approximate half-life of TCPT.

[10] = Half-lives after intravenous dosage in guinea pigs; conditions: guinea pig, in vivo, 10 mg/kg, two guinea pigs, i.v. 10 mg/kg
From the text: as §3

[11] = Solubility and stability observations; type: physicochemical
rats [12] = test: Observed interaction with anesthetics (pentobarbital)
[13] = Acute toxicity, daily p.o. doses of TCPT in guinea pigs; conditions: female, Dunkin-Hartley, guinea pig, in vivo, po
Experimental: (§4) In this example, dose-range finding studies were performed with a small number of animals to accommodate the limited availability of TCPT.
(§5) Six adult male Dunkin-Hartley guinea pigs were given daily p.o. doses of TCPT. Due to its insolubility, TCPT was administered as a solid in size 9 gelatin capsules and dosing devices purchased from Torpack, Inc. (Fairfield, N.J.).
(§6) The experimental design of daily dosing accounted for the short half-life known from clinically used phenothiazines and the results of prior unpublished studies with 1,2,3,7,8,9-hexachlorophenothiazine.
(§7) This example first looked at daily p.o. administration to guinea pigs. Eleven guinea pigs received multiple doses of TCPT, with dosages ranging from 2.5 to 100 mg/kg/day.

[14] = tested on: Dunkin-Hartley guinea pigs; test: as above
Experimental: as §4, §5, §6, §7

[15] = 20 mg/kg/day, 9 consecutive days
[16] = peroral solid TCPT 30 min prior to pentobarbital (55 mg/kg)

Clc1cc2c(cc1Cl)Oc1cc(Cl)c(Cl)cc1O2 [TCDD, 2,3,7,8-Tetrachlorodibenzo-p-dioxin]
LD50 (guinea pigs): 0.0021 mg/kg | LD50 (hamsters): 1157−5051 μg/kg | LD50 (rats [1]; Han Wistar rats (Pohjanvirta et al.)): > 3 mg/kg | LD50 (rats [1]; Long-Evans rats (Pohjanvirta et al.)): 0.01 mg/kg | inter-strain difference in LD50 (rats [1]; between Long-Evans and Han Wistar rats): ~300 fold | LD50 (rats [1]; female rats (Schwetz et al. 1973)): 0.045 mg/kg | LD50 (rats [1]; male rats (Schwetz et al. 1973)): 0.022 mg/kg | i.v. LD50 (rats [1]; rats, i.v. (Schwetz et al. 1973)): 0.025 mg/kg | effect on cycle and ovulation (rats [2]): prolonged diestrus stage | body burden below which weight gain resumed (rats [3]; 3 weeks after dosing): Below 5 μg/kg | body burden at which feed intake started rising again (rats [3]; after non-lethal dose of 15 μg/kg, after 11 days): 6.6 to 8 µg/kg | TEF-value [4]: 1 | concentration below which most individuals do not show signs (humans; humans (Williams & Wilkins 1992)): 11,000 ppt | dose corresponding to 11,000 ppt (humans; humans (Young 1984)): about 100 μg/kg | concentration at which chloracne symptoms may occur (humans; susceptible individuals, based on serum lipid content): 800 ppt | absorption [5]: > 86%

Clc1cc2c(cc1Cl)Sc1cc(Cl)c(Cl)cc1N2 [TCPT, 2,3,7,8-tetrachlorophenothiazine]
observable effects (guinea pig): no observable effect | LD50 [6]: 10 to 30 mg/kg | sedation (Sprague-Dawley rats; female rat, i.v. 10 mg/kg): ≤ 30 min | duration of lost consciousness (Sprague-Dawley rats; female rats, i.v. 5 mg/kg in acetone (1 ml/kg), likely effect of acetone): 3 min | duration of unconsciousness (Sprague-Dawley rats; female rats, i.v. 10 mg/kg in acetone (1 ml/kg)): 30 min | lethality (Sprague-Dawley rats; female rats, i.v. 30 mg/kg in acetone (1 ml/kg), 30 mg/kg): died within five seconds; also recorded: dropped dead within five seconds; also recorded: lethal dose | i.v. LD50 of TCPT relative to reported i.v. LD50 of TCDD (Sprague-Dawley rats; rats): roughly 1,000 times | set-point of bodyweight ([7]; all survivors): reduced set-point of bodyweight | bodyweight during the dosing period ([7]; guinea pigs, 2.5, 5, 10 and 20 mg/kg/day for 9 consecutive days): decrease in bodyweight | time until weight gain resumed after cessation ([7]; guinea pigs, after 9 days of dosing): 1 to 2 days | reduction of set-point for bodyweight ([7]; treated animal (20 mg/kg/day, 9 days), FIG. 2): 66 grams | effect on cycle/ovulation ([8]; 10 mg/kg/day, 9 consecutive days): shortened period of vaginal opening | effect on ovulation [8, 15]: inhibited ovulation | vaginal opening [8, 15]: irregular vaginal opening | direct or endocrine effect on the ovaries ([8]; guinea pigs, conclusion of the experiment): no direct or endocrine effect on the ovaries | effect on cycle/ovulation ([8]; two lowest dose groups (2.5, 5 mg/kg per day), 9 consecutive days from day 9 of cycle): no effect | potency compared with TCDD (acute toxicity in animals and in vitro EROD-specific activity) (CYP 1A1): three orders of magnitude less potent | time of maximum EROD-specific activity (CYP 1A1; measurements after 24, 48 and 72 h, declined over time): 24 h | efficacy, of the efficacy of TCDD, in vitro EROD-bioassay (CYP 1A1; rat hepatoma cells): 77% | half-life ([9]; 5 mg/kg, two rats, i.v. 5 mg/kg, read-out: half-life, distribution phase (converted)): 0.82 h | half-life ([9]; 5 mg/kg, two rats, i.v. 5 mg/kg, read-out: half-life, elimination phase (converted)): 5.42 h | half-life ([9]; 10 mg/kg, one rat, i.v. 10 mg/kg, read-out: half-life, distribution phase (converted)): 0.47 h | half-life ([9]; 10 mg/kg, one rat, i.v. 10 mg/kg, read-out: half-life, elimination phase (converted)): 2.25 h | half-life ([10]; read-out: half-life, distribution phase (converted)): 0.42 h | half-life ([10]; read-out: half-life, elimination phase (converted)): 2.71 h | stability in acetone [11]: decomposes in acetone | stability in acetone ([11]; listed as KWF3): degraded when kept in acetone for longer periods of time | solubility ([11]; any solvent): insolubility; also recorded: low solubility | mortality in anesthetized animals (rats [12]; i.v. 3 mg/kg, pentobarbital anesthesia): one animal dying out of three | effect in anesthetized animals (rats [12]; i.v. 5 mg/kg in acetone (1 ml/kg), pentobarbital 55 mg/kg): immediate respiratory arrest | fatalities (rats [12]; [16]): no fatalities | shortening of the onset of anesthesia (rats [12]; [16]): about 50% | breathing (rats [12]; rats, p.o. administration of various doses during pentobarbital-induced anesthesia): breathed very shallow and in long intervals | LD50 [13]: 25 to 50 mg/kg | day of death ([14]; adult female guinea pig, 10 mg/kg/day p.o. for 9 consecutive days): 13 days | Result ([14]; adult male guinea pig, animal 1, p.o. 25 mg/kg/d for 18 days): survived | Result ([14]; adult male guinea pig, animal 2, p.o. l00 mg/kg/d for 8 days): died | Result ([14]; adult male guinea pig, animal 3, p.o. 50, 10, 25, 50 mg/kg/d (dose-range finding) for 17 days): died | Result ([14]; adult male guinea pigs, animals 4-6, p.o. 27.5, 44, 50, 57, 67, 75 mg/kg/d for 13 days): survived | body weight ([14]; eleven guinea pigs, multiple p.o. doses 2.5 to 100 mg/kg/day): body weight loss | p.o. LD50 of TCPT relative to reported p.o. LD50 of TCDD ([14]; guinea pigs): roughly 10,000 times | autopsy finding ([14]; guinea pigs that died): loss of all adipose tissue | days of dosing until death ([14]; guinea pigs, p.o. 25-50 mg/kg/day): 8 to 11 days | dose for the acute lethal toxicity ([14]; guinea pigs, p.o., daily dosing): 25 to 50 mg/kg/day | difference in acute toxicity to TCDD ([14]; oral administration): 10^−4 fold | peroral potency compared with TCDD (wasting syndrome) ([14]; p.o. dosing): four orders of magnitude lower | tolerance ([14]; survivors of daily p.o. dosing): development of tolerance

Clc1cc2c(cc1Cl)Oc1c(cc(Cl)c(Cl)c1Cl)O2 [PeCDD, 1,2,3,7,8-pentachlorodibenzo-p-dioxin]
TEF-value [4]: 1
